Measured values published in publication PMC8752476 (Journal of molecular biology, 2021).

Experiments:
[1] = tested on: Abl^FK (SH3-SH2 module and kinase domain); assay: NMR; design: species or system human; details: GNF5 displaces imatinib from the myristoyl pocket
Abl^Y272H/A363V = assay: Kinase assay, phosphorylation of CrkII, Abl Y272H/A363V; assay type: biochemical, human

SMILES	effect on equilibrium, GNF5 added to imatinib-bound Abl^FK [1]	kinase activity of Abl^Y272H/A363V in the presence of both imatinib and GNF5 (Abl^Y272H/A363V; 2 mM ATP)	kinase activity of Abl^Y272H/A363V in the presence of imatinib (Abl^Y272H/A363V; 2 mM ATP, compared with Abl^Y272H/L359A)	effect on catalytic activity of Abl^Y272H/A363V at high ATP (Abl^Y272H/A363V; 20 mM ATP)
O=C(NCCO)c1cccc(-c2cc(Nc3ccc(OC(F)(F)F)cc3)ncn2)c1 [GNF5]	shifts the population almost fully towards the inhibited state	strongly suppressed		
Cc1ccc(NC(=O)c2ccc(CN3CCN(C)CC3)cc2)cc1Nc1nccc(-c2cccnc2)n1 [imatinib]			significantly higher than the activity of Abl^Y272H/L359A	significantly increases the catalytic activity
